Columns and labels:
[1] = Hepatic clearance in rat hepatocytes; type: ADME, cell-based, Hepatocyte
[2] = Oral bioavailability in CD-1 mouse at 5 mg/kg; type: ADME, organism-based; settings: in vivo
[3] = Hepatic clearance in mouse liver microsomes; type: ADME, microsome
[4] = Clearance in CD-1 mouse plasma at 1 mg/kg, iv or 5 mg/kg, po; type: ADME, organism-based
[5] = Half-life in CD-1 mouse plasma at 1 mg/kg, iv or 5 mg/kg, po; type: ADME, organism-based
[6] = Hepatic clearance in human liver microsomes; type: ADME, microsome
[7] = molecular target: T1, Lysine-specific demethylase 5A (Homo sapiens, UniProt P29375); assay: Inhibition of recombinant human N-terminal FLAG-tagged KDM5A expressed in baculovirus infected Sf9 insect cells using H3K4me3 peptide as substrate after 30 to 45 mins by TR-FRET assay
T1 sequence (P29375 whole entry): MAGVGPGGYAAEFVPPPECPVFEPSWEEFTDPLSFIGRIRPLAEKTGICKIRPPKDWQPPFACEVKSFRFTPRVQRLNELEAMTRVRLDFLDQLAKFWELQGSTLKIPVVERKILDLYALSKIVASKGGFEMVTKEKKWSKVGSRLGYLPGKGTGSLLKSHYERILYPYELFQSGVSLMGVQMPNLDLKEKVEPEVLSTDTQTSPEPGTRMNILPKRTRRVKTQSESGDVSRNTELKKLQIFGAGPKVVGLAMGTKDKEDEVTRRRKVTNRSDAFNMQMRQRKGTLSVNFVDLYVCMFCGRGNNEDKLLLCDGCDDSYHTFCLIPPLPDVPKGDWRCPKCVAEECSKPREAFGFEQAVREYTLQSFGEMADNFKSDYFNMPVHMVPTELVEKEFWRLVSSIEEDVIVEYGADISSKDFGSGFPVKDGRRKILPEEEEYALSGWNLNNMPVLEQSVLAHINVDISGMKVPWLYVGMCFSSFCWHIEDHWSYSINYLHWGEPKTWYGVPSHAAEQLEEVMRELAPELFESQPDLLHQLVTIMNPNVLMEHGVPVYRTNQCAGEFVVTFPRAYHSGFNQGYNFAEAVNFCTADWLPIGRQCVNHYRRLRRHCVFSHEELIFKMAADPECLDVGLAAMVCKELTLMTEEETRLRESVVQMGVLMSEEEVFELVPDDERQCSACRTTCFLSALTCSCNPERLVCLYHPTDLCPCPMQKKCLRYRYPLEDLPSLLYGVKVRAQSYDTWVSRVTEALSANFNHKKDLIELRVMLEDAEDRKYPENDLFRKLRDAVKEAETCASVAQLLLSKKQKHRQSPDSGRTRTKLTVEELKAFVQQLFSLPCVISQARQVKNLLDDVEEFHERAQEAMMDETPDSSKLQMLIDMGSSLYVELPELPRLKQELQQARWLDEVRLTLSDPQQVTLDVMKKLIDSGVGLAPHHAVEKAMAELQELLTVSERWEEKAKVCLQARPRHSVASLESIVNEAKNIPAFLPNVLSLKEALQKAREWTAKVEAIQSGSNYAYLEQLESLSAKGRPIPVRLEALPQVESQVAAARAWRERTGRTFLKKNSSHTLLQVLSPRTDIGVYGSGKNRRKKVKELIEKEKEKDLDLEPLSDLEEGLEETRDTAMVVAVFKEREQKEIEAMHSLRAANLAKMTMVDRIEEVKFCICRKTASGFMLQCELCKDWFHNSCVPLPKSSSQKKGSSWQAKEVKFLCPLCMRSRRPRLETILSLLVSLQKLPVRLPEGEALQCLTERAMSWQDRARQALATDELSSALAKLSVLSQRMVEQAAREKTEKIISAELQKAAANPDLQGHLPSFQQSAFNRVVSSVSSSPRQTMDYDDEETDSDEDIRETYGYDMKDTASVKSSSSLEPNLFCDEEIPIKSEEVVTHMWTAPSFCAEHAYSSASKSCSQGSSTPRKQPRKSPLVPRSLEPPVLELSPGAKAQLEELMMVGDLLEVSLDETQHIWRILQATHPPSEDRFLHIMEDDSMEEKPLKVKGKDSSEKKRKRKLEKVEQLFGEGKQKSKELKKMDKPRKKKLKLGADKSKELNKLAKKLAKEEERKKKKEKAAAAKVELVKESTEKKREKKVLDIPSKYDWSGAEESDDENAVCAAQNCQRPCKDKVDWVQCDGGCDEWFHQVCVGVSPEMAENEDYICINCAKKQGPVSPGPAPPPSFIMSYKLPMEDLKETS

[8] = Hepatic clearance in rat liver microsomes; type: ADME, microsome
[9] = Volume of distribution in CD-1 mouse plasma at 1 mg/kg, iv or 5 mg/kg, po; type: ADME, organism-based
[10] = Hepatic clearance in human hepatocytes; type: ADME, cell-based, Hepatocyte
[11] = Protein binding in mouse plasma; type: ADME, cell-free; settings: read-out: PPB (converted)
[12] = Protein binding in human plasma; type: ADME, cell-free; settings: read-out: PPB (converted)
[13] = Protein binding in rat plasma; type: ADME, cell-free; settings: read-out: PPB (converted)
[14] = molecular target: T1, Lysine-specific demethylase 5A; assay: Inhibition of KDM5A in human PC9 cells assessed as increase in H3K4me3 level after 5 days by mass-spectrometric method; type: cell-based
[15] = Hepatic clearance in mouse hepatocytes; type: ADME, cell-based, Hepatocyte
[16] = molecular target: T2, Lysine-specific demethylase 4C (Homo sapiens, UniProt Q9H3R0); assay: Inhibition of recombinant human N-terminal FLAG-tagged KDM4C expressed in baculovirus infected Sf9 insect cells using H3K9me3 peptide as substrate after 30 to 45 mins by TR-FRET assay
T2 sequence (Q9H3R0 whole entry): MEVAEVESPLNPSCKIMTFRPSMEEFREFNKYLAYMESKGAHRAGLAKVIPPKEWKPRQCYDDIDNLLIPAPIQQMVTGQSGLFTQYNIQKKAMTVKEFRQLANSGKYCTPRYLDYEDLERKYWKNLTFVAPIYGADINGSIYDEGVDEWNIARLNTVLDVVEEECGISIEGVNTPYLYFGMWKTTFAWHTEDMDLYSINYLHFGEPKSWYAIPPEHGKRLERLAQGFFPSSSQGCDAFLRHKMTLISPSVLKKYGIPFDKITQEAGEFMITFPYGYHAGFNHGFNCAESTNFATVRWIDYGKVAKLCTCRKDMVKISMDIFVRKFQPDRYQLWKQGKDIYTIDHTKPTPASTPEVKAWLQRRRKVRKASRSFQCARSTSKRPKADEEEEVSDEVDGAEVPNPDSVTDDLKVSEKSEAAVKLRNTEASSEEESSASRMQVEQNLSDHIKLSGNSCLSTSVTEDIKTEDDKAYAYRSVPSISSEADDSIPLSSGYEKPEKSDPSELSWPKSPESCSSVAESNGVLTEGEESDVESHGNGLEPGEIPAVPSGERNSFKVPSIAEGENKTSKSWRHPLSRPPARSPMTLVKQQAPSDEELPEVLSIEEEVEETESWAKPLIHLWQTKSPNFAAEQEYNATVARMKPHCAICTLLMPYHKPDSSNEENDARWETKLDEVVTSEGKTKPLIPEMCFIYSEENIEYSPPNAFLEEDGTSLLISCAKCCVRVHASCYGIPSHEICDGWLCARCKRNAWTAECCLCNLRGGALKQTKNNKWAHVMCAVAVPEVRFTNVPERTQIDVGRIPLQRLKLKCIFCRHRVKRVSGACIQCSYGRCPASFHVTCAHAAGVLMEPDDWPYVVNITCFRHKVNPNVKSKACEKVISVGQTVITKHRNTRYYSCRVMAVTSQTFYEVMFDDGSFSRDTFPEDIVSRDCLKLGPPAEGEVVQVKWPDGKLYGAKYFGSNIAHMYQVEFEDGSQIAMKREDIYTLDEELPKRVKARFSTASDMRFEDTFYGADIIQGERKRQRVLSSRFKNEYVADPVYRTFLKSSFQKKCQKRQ

In the case of Cc1cc(-c2cnn(C)c2)cc(C2CCN(C(=O)c3cc(C(C)C)n[nH]3)C2)n1 (stereo in doubt; 9), the CLhep predicted [1] is reported as 39 mL/min/kg, the bioavailability [2] is reported as 94% and the CLhep predicted [3] is reported as 69 mL/min/kg. The clearance [4] was 99.9 mL/min/kg, the half-life [5] was 18 min and the CLhep predicted [6] was 7 mL/min/kg. The IC50 [7] was 0.16 µM, the CLhep predicted [8] was 37 mL/min/kg and the Vd [9] was 2.1 L/kg. The CLhep predicted [10] was 12 mL/min/kg, the fraction unbound [11] was 0.043 and the fraction unbound [12] was 0.045. The fraction unbound [13] was 0.027, the EC50 [14] was > 30 µM and the CLhep predicted [15] was 66 mL/min/kg. For the same molecule, the IC50 [16] was 13.3 µM.
